Reference: patent US10633394B2, “Heterocyclic derivatives and use thereof” (C & C RESEARCH LABORATORIES, priority 2014, dated 2020)

Key:
Type in all cases: cell-based
STAT1 = target: T1, STAT1 (Homo sapiens, UniProt P42224); assay: STAT1 reporter gene (luciferase) assay in U2OS stable cell line stimulated with IFN-γ; settings: U2OS stable cell line (pGL4-STAT1-TA-luc), IFN-γ 50 ng/mL, 8 hours; read-out: IC50 (μM) pSTAT1
T1 construct: pGL4-STAT1-TA-luc), which contains a stably operating STAT1 promoter; endogenous in cells
T1 sequence (P42224 1-750): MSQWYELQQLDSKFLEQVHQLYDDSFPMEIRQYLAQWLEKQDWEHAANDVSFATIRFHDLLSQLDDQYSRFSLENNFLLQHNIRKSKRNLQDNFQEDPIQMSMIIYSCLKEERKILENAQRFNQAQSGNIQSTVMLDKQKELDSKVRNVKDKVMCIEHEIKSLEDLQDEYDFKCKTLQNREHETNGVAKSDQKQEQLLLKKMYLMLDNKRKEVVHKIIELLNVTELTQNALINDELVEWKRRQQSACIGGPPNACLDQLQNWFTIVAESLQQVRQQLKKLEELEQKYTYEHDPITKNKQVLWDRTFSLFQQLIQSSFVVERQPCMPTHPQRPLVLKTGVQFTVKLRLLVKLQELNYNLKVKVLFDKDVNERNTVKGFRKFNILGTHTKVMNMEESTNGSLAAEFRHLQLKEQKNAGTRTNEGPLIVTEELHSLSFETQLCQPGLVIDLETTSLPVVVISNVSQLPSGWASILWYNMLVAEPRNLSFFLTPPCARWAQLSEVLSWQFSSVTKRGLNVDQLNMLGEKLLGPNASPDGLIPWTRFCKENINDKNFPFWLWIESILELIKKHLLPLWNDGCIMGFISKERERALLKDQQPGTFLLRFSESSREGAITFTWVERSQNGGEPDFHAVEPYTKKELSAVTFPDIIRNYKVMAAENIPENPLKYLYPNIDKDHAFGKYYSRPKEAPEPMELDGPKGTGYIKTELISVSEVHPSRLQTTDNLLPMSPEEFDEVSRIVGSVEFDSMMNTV
Experimental: 1-2) Experiment on the Inhibition of STAT1 Activity
A human osteosarcoma cell line (U2OS stable cell line; pGL4-STAT1-TA-luc), which contains a stably operating STAT1 promoter, was cultured in McCoy 5′A medium (Cat No. 16600, Life Technologies) containing 10% FBS (Cat No. SH30396, Thermo Scientific) and 1000 μg/mL G418 solution (Cat No. 04 727 894 001, Roche). The reporter gene assay using U2OS stable cell line was performed in McCoy 5′A medium containing 10% FBS without G-418 solution. U2OS stable cells were plated in two (2) white 96-well plates with 25,000 cells/50 μL in each well. […] The plates were observed under microscope and drug precipitation and particular findings were investigated and recorded.
The luciferase assay and the cell viability assay were performed respectively with one of two plates. […] After shaking the plate for 30 minutes, luciferase activities of each well were measured in a PHERAstar™ microplate reader (BMG LABTECH) using a luciferase assay system (Cat No. E1501, Promega). For the cell viability assay, the 96-well plate was placed at room temperature for 30 minutes, added with 20 μL/well of CellTiter-Glo solution (Cat No. G7573, Promega), and shaken for 10 minutes in order to measure cytotoxicity caused by the compounds listed in Examples with a PHERAstar™ microplate reader (BMG LABTECH). […]

STAT3 = target: T2, STAT3 (Homo sapiens, UniProt P40763); assay: STAT3 reporter gene (luciferase) assay in LNCaP stable cell line stimulated with IL-6; settings: LNCaP stable cell line (pSTAT3-TA-luc), IL-6 10 ng/mL, 24 hours
T2 construct: plasmid pSTAT3-TA-luc), which contains a stably operating STAT3 promoter; endogenous in cells
T2 sequence (P40763 whole entry): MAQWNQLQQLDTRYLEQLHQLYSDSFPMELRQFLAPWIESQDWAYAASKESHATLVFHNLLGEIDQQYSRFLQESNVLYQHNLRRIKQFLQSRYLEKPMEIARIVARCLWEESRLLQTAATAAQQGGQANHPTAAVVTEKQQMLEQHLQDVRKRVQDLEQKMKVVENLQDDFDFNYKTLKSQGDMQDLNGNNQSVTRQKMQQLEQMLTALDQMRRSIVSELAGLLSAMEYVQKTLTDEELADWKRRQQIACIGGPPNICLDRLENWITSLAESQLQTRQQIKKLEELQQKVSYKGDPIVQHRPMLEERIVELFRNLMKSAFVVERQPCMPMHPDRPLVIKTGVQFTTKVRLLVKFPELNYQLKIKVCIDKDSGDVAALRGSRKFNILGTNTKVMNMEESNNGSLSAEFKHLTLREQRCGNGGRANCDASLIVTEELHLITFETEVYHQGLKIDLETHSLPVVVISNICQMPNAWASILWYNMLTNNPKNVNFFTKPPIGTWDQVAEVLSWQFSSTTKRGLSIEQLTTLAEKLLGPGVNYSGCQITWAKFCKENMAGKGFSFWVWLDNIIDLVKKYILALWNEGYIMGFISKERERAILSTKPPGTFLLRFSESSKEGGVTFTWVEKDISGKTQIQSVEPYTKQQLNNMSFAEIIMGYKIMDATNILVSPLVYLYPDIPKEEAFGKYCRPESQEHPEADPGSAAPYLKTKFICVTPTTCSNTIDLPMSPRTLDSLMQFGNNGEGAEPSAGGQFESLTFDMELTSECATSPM
In short: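 LNCaP cells stably carrying pSTAT3-TA-luc, in RPMI1640 with 3% DCC-FBS, cultured 24 hours, then treated with compound at various concentrations plus IL-6 (final 10 ng/mL) for 24 hours at 37° C. Luciferase measured in lysates; parallel plate read for viability by CellTiter-Glo.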

NCI-N87 = assay: Cell growth inhibition assay (CellTiter-Glo), stomach cancer cell line NCI-N87; settings: NCI-N87 cells, 96 hours
In short: (§1)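 Cells seeded at 5,000/well (NCI-N87) or 10,000/well (MDA-MB-468) and exposed to serially diluted compounds for 96 h at 37 °C, NCI-N87 under 5% CO2 and MDA-MB-468 in air. Viability read by CellTiter-Glo luminescence; cell-free wells served as negative control and 0.1% DMSO wells as positive control.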

MDA-MB-468 = assay: Cell growth inhibition assay (CellTiter-Glo), breast cancer cell line MDA-MB-468; settings: MDA-MB-468 cells, 96 hours
In short: as §1

IC50 (STAT1) [µM] | IC50 (STAT3) [µM] | IC50 (NCI-N87) [µM] | IC50 (MDA-MB-468) [µM] | Substance
> 50 | 0.76 | 0.72 |  | tert-butyl 7-((2-chloro-6-(4-chlorophenoxy)pyridin-4-yl)carbamoyl)-1-(methylsulfonyl)-2,3-dihydrothieno[2,3-g]quinoxaline-4(1H)-carboxylate [Example 5]
> 50 | 0.0062 | 0.0095 | 0.0047 | N-(2-chloro-6-(5-chloro-2-methylphenoxy)pyridin-4-yl)-4-(methylsulfonyl)-3,4-dihydro-2H-thieno[3,2-g]chromene-7-carboxamide [Example 37]
